According to patent US20250145632A1, “Pyrimidine Heterocyclic Compound, Preparation Method Thereof and use Thereof in Medicine” (INSILICO MEDICINE IP LIMITED, priority 2021, published 2025):

What was measured:
CDK7/Cyclin H/MAT1 = CDK7/Cyclin H/MAT1 (Homo sapiens (Human), UniProt P50613); test: In-vitro inhibition of CDK7/Cyclin H/MAT1 kinase activity (Caliper mobility shift); type: biochemical; conditions: ATP 50 μM, 70 min, 27° C.; read-out: CDK7/CyclinH/MAT1 IC50 assay
Excerpt: (§1) CDK2/Cyclin E1 was purchased from Biortus; batch No.: 20150228-BP469/477/691; CDK7/Cyclin H/MAT1 was purchased from Biortus; Batch No.: 20190326-BP487/492/479; CDK9/Cyclin T1 was purchased from Biortus; Batch No.: 20200727-BP488/792/691; CDK12/Cyclin K was purchased from Biortus; Batch No.: 20200526-BP1642/1648/691; MES was purchased from BiRoYee (Baoruyi); Batch No.: 67GR9637; BSA was purchased from Aladdin; Batch No.: H1601024; ATP was purchased from VWR; Batch No.: 97061-226; EDTA was purchased from Sinopharm Group; Batch No.: 20200521; and staurosporine was purchased from Selleckchem; Batch No.: S1421.
This experiment was used for determining the inhibition of the activities of CDK2, CDK7, CDK9 and CDK12 kinases by the compound. The kinase reaction carried out by the present invention was measured in a 384-well plate, the final measured volume was 16 μl, and the reaction temperature was 27° C. The concentrations of the kinases were determined by optimization experiment. […] The data was calculated with GraphPad Prism version 9.0, and an IC50 value was obtained by adjusting a nonlinear regression model using a dose reaction curve. […]

CDK2/Cyclin E1 = CDK2/Cyclin E1 (Homo sapiens (Human), UniProt P24941); test: In-vitro inhibition of CDK2/Cyclin E1 kinase activity (Caliper mobility shift); type: biochemical; conditions: for Ki: Ki calculated from IC50 under Km ATP condition (Cheng and Prusoff); for Selectivity (CDK2 Ki/CDK7 KD): Ki off-target / KD CDK7 (SPR)
Excerpt: as §1
(§2) This experiment was used for determining the inhibition of the activities of CDK2, CDK7, CDK9 and CDK12 kinases by the compound. The kinase reaction carried out by the present invention was measured in a 384-well plate, the final measured volume was 16 μl, and the reaction temperature was 27° C. The concentrations of the kinases were determined by optimization experiment. The specific experimental process was as follows: • 1) preparation of kinase solutions: • kinase solution (CDK2/Cyclin E1): the kinase was diluted in a assay buffer solution ((20 mM MES pH 6.75, 0.01% Tween 20, 0.05 mg/mL BSA, 2 mM MgCl2) to obtain an enzyme solution with the corresponding 2.4× concentration; • kinase solution (CDK7/Cyclin H/MAT1): the kinase was diluted in the assay buffer solution (20 mM MES pH 6.75, 0.01% Tween 20, 0.05 mg/mL BSA, 6 mM MgCl2) to obtain an enzyme solution with the corresponding 2.4× concentration; • kinase solution (CDK9/Cyclin T1): the kinase was diluted in the assay buffer solution (20 mM MES pH 6.75, 0.01% Tween 20, 0.05 mg/mL BSA, 10 mM MgCl2) to obtain an enzyme solution with the corresponding 2.4× concentration; and • kinase solution (CDK12/Cyclin K): the kinase was diluted in a assay buffer solution (80 mM MES pH 6.5, 0.01% Tween 20, 0.05 mg/mL BSA, 10 mM MgCl2) to obtain an enzyme solution with the corresponding 2.4× concentration. • 2) Preparation of compound solutions: the compound was dissolved in dimethyl sulfoxide (DMSO) at a concentration of 10 mM, the compound was diluted to 10 concentration gradients of 25 nM to 500 μM with DMSO during use, diluted in ultrapure water by 8.3 times respectively to obtain compound solutions with 6× concentration. • 3) Preparation of a polypeptide substrate and ATP solution: the polypeptide substrate and ATP were diluted in the assay buffer solution to obtain a polypeptide substrate and ATP mixed solution with 2.4× concentration. • 4) Kinase reaction process: • 2 ul of the test compound solution, 5 ul of the polypeptide substrate and ATP mixed solution and 5 ul of an enzyme solution were mixed and incubated at 27° C. (CDK2 was incubated for 60 min, CDK7 was incubated for 70 min, CDK9 was incubated for 70 min, and CDK12 was incubated for 280 min), and then 4 ul of EDTA with a concentration of 150 mM was added into each sample to terminate the reaction. […] The data was calculated with GraphPad Prism version 9.0, and an IC50 value was obtained by adjusting a nonlinear regression model using a dose reaction curve. The calculation formula was Y=Bottom+(Top-Bottom)/(1+10^((LogIC50−X)*HillSlope)). X represents a log value (log of dose or concentration); Y represents an inhibition rate (% inhibition, increasing as x increases) which was increased along with the increase of X; Top represents maximum response; Bottom represents baseline response; and HillSlope represents a curve slope.

CDK9/Cyclin T1 = CDK9/Cyclin T1 (Homo sapiens (Human), UniProt P50750); test: In-vitro inhibition of CDK9/Cyclin T1 kinase activity (Caliper mobility shift); type: biochemical; conditions: for Ki: Ki calculated from IC50 under Km ATP condition (Cheng and Prusoff); for Selectivity (CDK9 Ki/CDK7 KD): Ki off-target / KD CDK7 (SPR)
Chain of CDK9/Cyclin T1 (P50750 whole entry): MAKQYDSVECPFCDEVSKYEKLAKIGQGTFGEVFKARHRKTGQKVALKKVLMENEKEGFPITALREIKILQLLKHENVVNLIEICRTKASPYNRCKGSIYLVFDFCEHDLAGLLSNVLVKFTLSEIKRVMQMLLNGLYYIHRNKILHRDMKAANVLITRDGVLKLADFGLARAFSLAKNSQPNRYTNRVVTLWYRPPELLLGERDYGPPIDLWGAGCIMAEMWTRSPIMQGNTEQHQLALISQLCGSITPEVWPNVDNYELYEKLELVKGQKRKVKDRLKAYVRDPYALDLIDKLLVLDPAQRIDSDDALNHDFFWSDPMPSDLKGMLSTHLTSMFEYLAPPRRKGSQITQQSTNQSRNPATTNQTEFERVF
Chain of CDK9/Cyclin T1 (O60563 whole entry partner): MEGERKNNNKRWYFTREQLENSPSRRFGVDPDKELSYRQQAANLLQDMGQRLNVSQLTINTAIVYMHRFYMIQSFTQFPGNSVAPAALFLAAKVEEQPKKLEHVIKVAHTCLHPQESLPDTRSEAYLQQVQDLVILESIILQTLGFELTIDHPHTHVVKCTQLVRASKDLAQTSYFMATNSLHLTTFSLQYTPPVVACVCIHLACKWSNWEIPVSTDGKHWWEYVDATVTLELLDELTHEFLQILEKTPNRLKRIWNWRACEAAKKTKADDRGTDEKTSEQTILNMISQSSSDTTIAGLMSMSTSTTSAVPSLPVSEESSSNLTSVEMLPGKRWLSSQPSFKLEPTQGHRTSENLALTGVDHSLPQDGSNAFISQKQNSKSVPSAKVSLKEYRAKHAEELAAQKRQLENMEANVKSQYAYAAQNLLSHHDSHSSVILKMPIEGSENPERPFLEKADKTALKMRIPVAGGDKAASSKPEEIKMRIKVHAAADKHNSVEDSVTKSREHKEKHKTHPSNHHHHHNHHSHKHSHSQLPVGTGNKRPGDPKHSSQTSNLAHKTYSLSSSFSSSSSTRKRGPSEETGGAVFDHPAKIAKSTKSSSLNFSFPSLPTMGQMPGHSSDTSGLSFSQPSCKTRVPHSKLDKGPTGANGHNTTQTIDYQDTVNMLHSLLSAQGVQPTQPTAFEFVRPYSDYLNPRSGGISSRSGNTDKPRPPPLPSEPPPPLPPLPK
Excerpt: as §1, §2

CDK12/Cyclin K = CDK12/Cyclin K (Homo sapiens (Human), UniProt Q9NYV4); test: In-vitro inhibition of CDK12/Cyclin K kinase activity (Caliper mobility shift); type: biochemical; conditions: for Ki: Ki calculated from IC50 under Km ATP condition (Cheng and Prusoff); for Selectivity (CDK12 Ki/CDK7 KD): Ki off-target / KD CDK7 (SPR)
Chain of CDK12/Cyclin K (Q9NYV4 whole entry): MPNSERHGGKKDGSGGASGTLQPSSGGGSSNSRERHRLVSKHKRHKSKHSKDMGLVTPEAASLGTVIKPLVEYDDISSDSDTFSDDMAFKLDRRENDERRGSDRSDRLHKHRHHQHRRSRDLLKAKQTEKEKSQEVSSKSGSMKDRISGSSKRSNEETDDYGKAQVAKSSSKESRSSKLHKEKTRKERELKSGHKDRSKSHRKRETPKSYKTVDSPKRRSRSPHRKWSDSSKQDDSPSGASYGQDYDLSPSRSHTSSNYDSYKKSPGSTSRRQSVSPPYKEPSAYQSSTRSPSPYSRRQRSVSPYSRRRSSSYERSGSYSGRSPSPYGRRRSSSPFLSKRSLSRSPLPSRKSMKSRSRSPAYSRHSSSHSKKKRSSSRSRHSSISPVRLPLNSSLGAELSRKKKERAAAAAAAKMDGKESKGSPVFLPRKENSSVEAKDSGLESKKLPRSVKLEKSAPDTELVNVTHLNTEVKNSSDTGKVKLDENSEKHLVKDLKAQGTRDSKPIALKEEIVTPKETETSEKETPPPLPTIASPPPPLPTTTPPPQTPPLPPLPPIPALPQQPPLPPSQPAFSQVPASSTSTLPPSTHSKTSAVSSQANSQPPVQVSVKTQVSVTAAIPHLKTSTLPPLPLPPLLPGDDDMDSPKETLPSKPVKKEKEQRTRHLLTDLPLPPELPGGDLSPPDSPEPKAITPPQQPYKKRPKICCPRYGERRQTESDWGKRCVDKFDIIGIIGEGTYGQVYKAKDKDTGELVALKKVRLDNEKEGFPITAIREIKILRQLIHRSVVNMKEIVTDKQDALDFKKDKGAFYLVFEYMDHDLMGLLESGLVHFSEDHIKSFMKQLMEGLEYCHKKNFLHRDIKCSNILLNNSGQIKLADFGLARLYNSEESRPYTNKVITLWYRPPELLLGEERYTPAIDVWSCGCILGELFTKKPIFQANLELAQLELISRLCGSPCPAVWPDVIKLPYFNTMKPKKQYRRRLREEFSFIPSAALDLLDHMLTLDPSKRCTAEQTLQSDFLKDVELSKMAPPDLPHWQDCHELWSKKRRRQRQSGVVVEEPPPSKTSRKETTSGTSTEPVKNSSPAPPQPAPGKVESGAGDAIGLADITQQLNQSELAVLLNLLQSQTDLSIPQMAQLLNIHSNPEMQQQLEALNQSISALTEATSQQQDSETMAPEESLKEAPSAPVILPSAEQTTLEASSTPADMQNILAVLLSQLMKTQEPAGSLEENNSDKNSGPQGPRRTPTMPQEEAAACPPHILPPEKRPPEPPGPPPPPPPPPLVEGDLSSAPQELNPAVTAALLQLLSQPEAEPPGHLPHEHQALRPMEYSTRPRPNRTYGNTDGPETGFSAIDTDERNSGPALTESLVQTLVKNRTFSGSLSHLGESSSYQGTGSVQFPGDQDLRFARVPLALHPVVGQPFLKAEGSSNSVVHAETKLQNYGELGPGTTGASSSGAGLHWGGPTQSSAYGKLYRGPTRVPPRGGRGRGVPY
Chain of CDK12/Cyclin K (O75909 whole entry partner): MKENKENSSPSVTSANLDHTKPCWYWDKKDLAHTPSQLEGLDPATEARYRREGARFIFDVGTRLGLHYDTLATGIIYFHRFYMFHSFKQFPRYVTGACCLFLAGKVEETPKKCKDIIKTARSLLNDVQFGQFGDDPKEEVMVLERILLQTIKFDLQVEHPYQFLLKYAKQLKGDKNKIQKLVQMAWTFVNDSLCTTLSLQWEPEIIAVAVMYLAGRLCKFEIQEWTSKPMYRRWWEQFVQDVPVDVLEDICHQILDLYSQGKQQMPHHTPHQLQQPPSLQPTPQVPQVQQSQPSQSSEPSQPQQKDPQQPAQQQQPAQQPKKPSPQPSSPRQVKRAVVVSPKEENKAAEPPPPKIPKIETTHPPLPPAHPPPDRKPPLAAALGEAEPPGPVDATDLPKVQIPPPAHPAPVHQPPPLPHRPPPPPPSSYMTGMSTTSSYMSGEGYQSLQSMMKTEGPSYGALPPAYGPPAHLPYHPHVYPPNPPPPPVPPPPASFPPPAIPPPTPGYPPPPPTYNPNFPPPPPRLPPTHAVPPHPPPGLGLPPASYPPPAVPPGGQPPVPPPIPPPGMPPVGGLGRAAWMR
Excerpt: as §1, §2

[1] = system: HCC70 human breast ductal cancer cells; test: HCC70 tumor cell proliferation inhibition (CellTiter-Glo); type: cell-based; conditions: 3 d culture
Procedure: HCC70 was purchased from ATCC; article No.: CRL-2315; RPMI1640 was purchased from Gibco; article No.: 11875-093; Pancreatin (including EDTA) was purchased from Gibco; article No.: 25200-072; FBS was purchased from Gibco; article No.: 10099-141C; CellTiter-Glo was purchased from Promega; article No.: G7573; DMSO was purchased from VWR AMRESCO; article No.: 0231-500ML; Staurosporine was purchased from Selleck; article No.: S1421; a cell counter was purchased from CHEMOMETEC; model: NC-200; and a microplate reader was purchased from PerkinElmer; Model: Envison.
(§3) HCC70 was human breast ductal cancer cells cultured in an RPMI-1640 culture medium containing 10% FBS. Cells in logarithmic phase were taken, and the cells were subjected to digesting, collecting and counting with pancreatin-EDTA, 2000 HCC70 cells/well were inoculated in a 384-well cell plate, and were cultured in 5% CO2 overnight. A 1000× compound stock solution with 3.16 times of gradient concentration was prepared with DMSO, and was diluted 100 times to 10× compound stock solution with a culture medium, and 10× compound stock solution was added into each cell culture well on the next day after cell inoculation, wherein the final concentration was 1×, and the DMSO content was 0.1%. The cell group was treated with DMSO as an experimental control (control), and the cell group was treated with 5 μM of Staurosporine as a blank control (blank).

[2] = system: OVCAR-3 human ovarian adenocarcinoma cells; test: OVCAR-3 tumor cell proliferation inhibition (CellTiter-Glo); type: cell-based; conditions: 3 d culture
Procedure: OVCAR-3 was purchased from ATCC; article No.: HTB-161; RPMI1640 was purchased from Gibco; article No.: 11875-093; Pancreatin (including EDTA) was purchased from Gibco; article No.: 25200-072; FBS was purchased from Gibco; Article No.: 10091-148; CellTiter-Glo was purchased from Promega; article No.: G7573; Bovine insulin was purchased from absin; article No.: abs9169; DMSO was purchased from VWR AMRESCO; article No.: 0231-500ML; Staurosporine was purchased from Selleck; article No.: S1421; a cell counter was purchased from CHEMOMETEC; model: NC-200; and a microplate reader was purchased from PerkinElmer; Model: Envison.
as §3, with “OVCAR-3” for “HCC70”, “ovarian adenocarcinoma” for “breast ductal cancer”, “20% FBS and 0.01 mg/mL of Bovine insulin.” for “10% FBS.”

[3] = In-vivo pharmacokinetic experiment in male beagles; set-up: species or system dog; conditions: beagle
Procedure: Experimental method and conditions: male beagles with weight of 8-11 kg were purchased from Jiangsu Marshall Biotechnology Co., Ltd. The to-be-tested compound was administered to 3 dogs at 0.2 mg/kg or 1.0 mg/kg (solvent: 2% DMSO+10% Kolliphor HS 15+88% (6.818% of hydroxypropyl-beta-cyclodextrin aqueous solution), 0.2 mg/mL or 1.0 mg/mL) by intravenous injection, and administered to 3 dogs at 2 mg/kg (solvent: 5% DMSO+95% (10% hydroxypropyl-beta-cyclodextrin salt aqueous solution, 0.4 mg/mL) by oral intragastric administration. Head vein blood sampling was carried out 5 min, 15 min, 30 min, 1 h, 2 h, 4 h, 8 h and 24 h after the administration, and 500 μL of each sample was collected. After collection, the samples were placed on ice, and plasma was centrifugally separated within 15 min for testing. The concentration of the medicine in the plasma was detected by liquid chromatography-tandem mass spectrometry (LC/MS/MS), and pharmacokinetic parameters were calculated with Phoenix WinNonlin software when the concentration was measured.

[4] = intravenous injection 0.2 mg/kg

Chain of CDK7/Cyclin H/MAT1 (P50613 whole entry): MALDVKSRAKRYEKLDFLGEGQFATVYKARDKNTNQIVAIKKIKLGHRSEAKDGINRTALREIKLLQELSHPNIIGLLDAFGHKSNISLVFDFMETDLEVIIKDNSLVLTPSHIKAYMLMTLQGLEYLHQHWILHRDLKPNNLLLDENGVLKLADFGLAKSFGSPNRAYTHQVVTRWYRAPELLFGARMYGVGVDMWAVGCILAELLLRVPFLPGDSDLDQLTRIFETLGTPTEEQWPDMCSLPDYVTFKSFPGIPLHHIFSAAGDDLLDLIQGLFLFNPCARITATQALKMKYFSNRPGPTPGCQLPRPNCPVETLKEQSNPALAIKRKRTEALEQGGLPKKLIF
Chain of CDK7/Cyclin H/MAT1 (P51946 whole entry partner): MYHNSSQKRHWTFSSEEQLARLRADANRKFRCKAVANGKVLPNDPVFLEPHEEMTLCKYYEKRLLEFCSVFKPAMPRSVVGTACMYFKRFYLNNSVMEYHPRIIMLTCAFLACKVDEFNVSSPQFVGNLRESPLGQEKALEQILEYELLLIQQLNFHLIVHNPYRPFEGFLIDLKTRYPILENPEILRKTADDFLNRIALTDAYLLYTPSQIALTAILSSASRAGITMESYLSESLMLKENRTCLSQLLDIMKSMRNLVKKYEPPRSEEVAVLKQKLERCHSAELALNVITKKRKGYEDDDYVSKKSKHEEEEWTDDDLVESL
Chain of CDK7/Cyclin H/MAT1 (P51948 whole entry partner): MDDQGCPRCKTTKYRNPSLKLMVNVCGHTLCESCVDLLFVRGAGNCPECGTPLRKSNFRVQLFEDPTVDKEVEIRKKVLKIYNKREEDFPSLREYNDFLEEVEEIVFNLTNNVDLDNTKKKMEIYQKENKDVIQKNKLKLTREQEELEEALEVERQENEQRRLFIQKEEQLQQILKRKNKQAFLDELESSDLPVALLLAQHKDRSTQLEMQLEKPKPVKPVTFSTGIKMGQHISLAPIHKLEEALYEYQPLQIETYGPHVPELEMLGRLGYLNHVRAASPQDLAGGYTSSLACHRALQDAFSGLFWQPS

Row | Compound | IC50 (CDK7/Cyclin H/MAT1) | Ki (CDK2/Cyclin E1) | Ki (CDK9/Cyclin T1) | Ki (CDK12/Cyclin K) | Selectivity (CDK2 Ki/CDK7 KD) (CDK2/Cyclin E1) | Selectivity (CDK9 Ki/CDK7 KD) (CDK9/Cyclin T1) | Selectivity (CDK12 Ki/CDK7 KD) (CDK12/Cyclin K) | IC50 [2] | AUC0~inf [3, 4] | CL [3, 4] | T1/2 [3, 4] | Vss [3, 4] | AUC0~inf ([3]; oral administration 2 mg/kg) | Cmax ([3]; oral administration 2 mg/kg) | F(%) ([3]; oral administration 2 mg/kg) | T1/2 ([3]; oral administration 2 mg/kg) | IC50 [1]
1 | O=C1NCCOCCN2CC[C@@H](C2)Nc2ncc(C(F)(F)F)c(n2)-c2c[nH]c3cc1ccc23 [Compound Z1, (4^3S)-2^5-(trifluoromethyl)-1^1H-7-oxa-3,10-diaza-1(3,6)-indola-2(4,2)-pyrimidina-4(3,1)-pyrrolidinacycloundecaphan-11-one] | 11 nM | 154 nM | 52.2 nM | 62.6 nM |  |  |  |  |  |  |  |  |  |  |  |  | 
2 | CP(C)(=O)c1c2ccc3c(c[nH]c13)-c1nc(ncc1C(F)(F)F)N[C@H]1CC[C@@H](C1)NCCOCCNC2=O [Compound Z7, (4^1S,4^3S)-1^7-(dimethylphosphoryl)-2^5-(trifluoromethyl)-1H-8-oxa-3,5,11-triaza-1(3,6)-indola-2(4,2)-pyrimidina-4(1,3)-cyclopentanacyclododecaphan-12-one] |  | 33.4 nM | 217 nM | 61.4 nM | (CDK2 Ki/CDK7 KD): 566 | (CDK9 Ki/CDK7 KD): 3675 | (CDK12 Ki/CDK7 KD): 61.35 |  |  |  |  |  |  |  |  |  | 41.1 nM
3 | CP(C)(=O)c1c2ccc3c(c[nH]c13)-c1nc(ncc1C(F)(F)F)N[C@H]1CC[C@@H](C1)NCCCCNC2=O [Compound Z5] |  | 25.6 nM | 95.5 nM | 26.1 nM | (CDK2 Ki/CDK7 KD): 160 | (CDK9 Ki/CDK7 KD): 597 | (CDK12 Ki/CDK7 KD): 163 |  |  |  |  |  |  |  |  |  | 42.7 nM
4 | (4^1S, 4^3S)-2^5-(trifluoromethyl)-1^1H-3,5,10-triaza-1(3,6)-indola-2(4,2)-pyrimidina-4(1,3)-cyclopentanacycloundecaphan-11-one [Compound Z2] | 4.58 nM | 9.8 nM | 10.6 nM | 22.7 nM | (CDK2 Ki/CDK7 KD): 70 | (CDK9 Ki/CDK7 KD): 76 | (CDK12 Ki/CDK7 KD): 162 |  |  |  |  |  |  |  |  |  | 207 nM

Second part, led by results:

Row | IC50 (CDK7/Cyclin H/MAT1) | Ki (CDK2/Cyclin E1) | Ki (CDK9/Cyclin T1) | Ki (CDK12/Cyclin K) | Selectivity (CDK2 Ki/CDK7 KD) (CDK2/Cyclin E1) | Selectivity (CDK9 Ki/CDK7 KD) (CDK9/Cyclin T1) | Selectivity (CDK12 Ki/CDK7 KD) (CDK12/Cyclin K) | IC50 [2] | AUC0~inf [3, 4] | CL [3, 4] | T1/2 [3, 4] | Vss [3, 4] | AUC0~inf ([3]; oral administration 2 mg/kg) | Cmax ([3]; oral administration 2 mg/kg) | F(%) ([3]; oral administration 2 mg/kg) | T1/2 ([3]; oral administration 2 mg/kg) | Compound | IC50 [1]
5 |  | 23.3 nM | 134 nM | 92.8 nM | (CDK2 Ki/CDK7 KD): 192 | (CDK9 Ki/CDK7 KD): 1103 | (CDK12 Ki/CDK7 KD): 763 | 84 nM |  |  |  |  |  |  |  |  | CN1C[C@@H](F)CCN(C)[C@H]2CC[C@@H](C2)Nc2ncc(C(F)(F)F)c(n2)-c2c[nH]c3c(P(C)(C)=O)c(ccc23)C1=O [Compound Z79, (4^1S,4^3S,8S)-1^7-(dimethylphosphoryl)-8-fluoro-5,10-dimethyl-2^5-(trifluoromethyl)-1^1H-3,5,10-triaza-1(3,6)-indola-2(4,2)-pyrimidina-4(1,3)-cyclopentanacycloundecaphan-11-one] | 66.5 nM
6 |  |  | 258 nM |  |  |  |  | 254 nM | 3097 ng·h/mL | 1.23 mL/min/kg | 3.42 h | 0.24 L/kg | 45620 ng·h/mL | 6623 ng/mL | 147% | 4.44 h | CN1CC(F)(F)CCN(C)[C@H]2CC[C@@H](C2)Nc2ncc(C(F)(F)F)c(n2)-c2c[nH]c3c(P(C)(C)=O)c(ccc23)C1=O [Compound Z65, (4^1S,43S)-1^7-(dimethylphosphoryl)-8,8-difluoro-5,10-dimethyl-2^5-(trifluoromethyl)-1^1H-3,5,10-triaza-1(3,6)-indola-2(4,2)-pyrimidina-4(1,3)-cyclopentanacycloundecaphan-11-one] | 46.9 nM
